# What was measured:
# [1] = tested on: Zucker Diabetic Fatty (ZDF) rats; test: Zucker Diabetic Fatty (ZDF) rat study (glucose, clamp, adipose histology, lipid profiles); type: in vivo
# Experimental: The study was staggered into 6 cohorts conducted on different days. Forty-two male Zucker Diabetic Fatty (ZDF) rats and six Zucker Fatty rats at 7-week of age were obtained from Charles River laboratories (Wilmington, Mass.). The rats were housed individually in polycarbonate cages in a temperature-controlled room on a 12 h: 12 h light: dark cycle with the lights on at 0600 h. Rats were fed ad libitum except during the experiments. After one week of acclimation to environmental conditions, the ZDF rats began daily oral treatment for 32 to 35 days with vehicle (n=18), 100 mg/kg/day 17α-ethynylandrost-5-ene-3β,7β,17β-triol (n=15), or 10 mg/kg/day rosiglitazone (n=9).
# Glucose levels were measured using a One-Touch glucometer (Lifescan). Extra serum samples were collected for free fatty acid (FFA), free glycerol, pyruvate, and lactate measurements. Glucose, insulin and pyruvate tolerance tests were performed on 6 hr fasted rats. For GTT, animals were orally gavaged with glucose (1 g/kg), whereas for ITT, 0.35 units/kg insulin (Novolin R, Novo-Nordisk) was injected intraperitoneally. Blood samples were taken at basal and 15, 30, 60, 90 and 120 min after injection. For the pyruvate tolerance test (PTT), 1 g/kg of pyruvate was used.
# Dual jugular venous cannulae and one carotid arterial cannula were implanted in rats. The rats were allowed to recover for 4 to 5 days before clamp procedure. The hyperinsulinemic euglycemic clamp experiments began with a priming injection (7.5 μCi/0.2 ml) and constant infusion (0.25 μCi/min) of D-[3-^3H] glucose (Du Pont-NEN, Boston, Mass.). After 60 min of tracer equilibration and basal sampling at t=−10 and 0 min, glucose (50% dextrose, variable infusion; Abbott) and tracer (0.25 μCi/min) plus insulin ([…]) were infused into the jugular vein. Small blood samples were drawn at 10-min intervals and immediately analyzed for glucose to maintain the integrity of the glucose clamp throughout the duration of the experiment. Blood samples were taken at t=−60 (start of experiment), −10, 0 (basal), 110, and 120 (end of experiment) min to determine glucose-specific activity and insulin, and free fatty acid (FFA). To ensure accuracy, basal and terminal sampling was performed twice at 10-min intervals. The achievement of steady-state conditions (100 mg/dl±5 mg/dl) was confirmed at the end of the clamp by measuring blood glucose every 10 min and ensuring that steady state for glucose infusion and plasma glucose levels were maintained for a minimum of 20 min. All blood samples were immediately centrifuged, and plasma was stored at −80° C. for subsequent analysis.
# Following a 3-day recovery after clamp, rats were fasted 6 hours and euthanized. Tissues were harvested at basal state or acute insulin-stimulated state (5 U/kg). Insulin levels were analyzed by ELISA assay (Alpco Diagnostics). FFA levels were measured by enzymatic assay (Wako Diagnostics). Glycerol levels were measured using an assay kit from Sigma. Lactate and pyruvate assay kits were obtained from Biovision. TNFα and IL-1βwere measured by ELISA assays (Biosource).
# Immunohistochemistry and quantification of crown-like structure (CLS) were done. These studies were conducted using paraffin-embedded adipose (epididymal) tissue sections from the rats incubated with MAC-2 antibody (Abcam) at a 1:100 dilution overnight at 4° C. Subsequently, biotinylated anti-rat secondary antibody (BD Bioscience) was used at 1:100 dilution, followed by 1:500 HRP-Streptavidin (Jackson ImmunoResearch) and development in substrate chromogen. Slides were counterstained with Mayer's and mounted with Vectashield mounting media with DAPI (Vector). Both bright field (MAC-2) and fluorescent photographs (DAPI) were taken of 3 representative fields per slide in a blinded fashion using a fluorescent microscope (10× objective).
# Gene expression analyses used total RNA extracted from tissue with Purelink total RNA purification system (Invitrogen) following the manufacturer's protocol.
# [2] = Blood levels after oral immediate release formulations; type: in vivo, human; details: for serum levels remained at or above: entire day
# Experimental: Blood levels of 17α-ethynylandrost-5-ene-3β,7β,17β-triol were determined in adult patients dosed with a range of dosages as oral immediate release formulations. The formulations were essentially as described in example 3, with capsules containing 1 mg/capsule, 5 mg/capsule, 10 mg/capsule, 25 mg/capsule or 50 mg/capsule. These unit doses were filled into hard gelatin capsules (size #1 for […] doses; size #2 for the 1 and 5 mg doses) and micronized compound (D90˜[…]) was used.
# Two capsules containing 1 mg of 17α-ethynylandrost-5-ene-3β,7β,17β-triol were administered twice per day to patients receiving a 4 mg/day total dose. […] Blood levels of the compound were at or above about 0.5 ng/mL for over 2 hours/day. […] In other patients receiving 4 mg/day for 28 days, there was a lower degree of response than patients receiving higher doses and 4 mg/day was considered to be the minimal effective dose.
# Analysis of some of the evaluable patients from example 1 gave the following results. […] Drug exposure over 24 hours (AUC0-24) in patients receiving 10 mg/day (5 mg twice per day) ranged from 15.7 ng·hr/mL to 190 ng·hr/mL and from 72 ng·hr/mL to 198 ng·hr/mL in patients receiving 20 mg/day (10 mg twice per day). Drug exposure in patients receiving 40 mg/day (20 mg twice per day) ranged from 60 ng·hr/mL to 209 ng·hr/mL.
# [3] = ZDF rats, 100 mg/kg/d, throughout the study, one week sufficient
# [4] = euglycemic-hyperinsulinemic clamp, triol 100 mg/kg/d, rosiglitazone 10 mg/kg/d (more robust)
# [5] = 2 mg twice per day (4 mg/day), n=2
smiles,measurement,setting,value
"C#C[C@]1(O)CC[C@H]2[C@@H]3[C@@H](O)C=C4C[C@@H](O)CC[C@]4(C)[C@H]3CC[C@@]21C [17α-ethynylandrost-5-ene-3β,7β,17β-triol]",intracellular triacylglycerol (TAG) content in livers,[1]; ZDF rats,marked decrease
same,decrease in serum cholesteryl esters,"[1]; ZDF rats, 100 mg/kg/d",59%
same,decrease in serum total cholesterol levels,"[1]; ZDF rats, 100 mg/kg/d",25%
same,gross pathology of the kidneys due to diabetes,"[1]; ZDF rats, 100 mg/kg/d",greatly ameliorated
same,level of free cholesterol in epididymal white adipose tissue (WAT),"[1]; ZDF rats, 100 mg/kg/d",reduced
same,other major lipid classes in WAT,"[1]; ZDF rats, 100 mg/kg/d",not significantly altered
same,reduction of hepatic cholesteryl ester levels,"[1]; ZDF rats, 100 mg/kg/d",73%
same,reduction of total cholesterol content in the liver,"[1]; ZDF rats, 100 mg/kg/d",15%
same,serum free cholesterol levels,"[1]; ZDF rats, 100 mg/kg/d",increase
same,plasma insulin levels,"[1]; ZDF rats, 100 mg/kg/d, one week of treatment",normalize
same,fasting glucose levels,[1]; [3],completely normalized
same,fed glucose levels,[1]; [3],completely normalized
same,"adipose tissue macrophage (ATM) content, Mac-2 staining","[1]; ZDF rats, epididymal adipose tissue sections",marked reduction
same,HMG CoA reductase expression,"[1]; ZDF rats, gene expression",increased
same,low density lipoprotein receptor (LDLR) expression,"[1]; ZDF rats, gene expression",increased
same,MCP-1 in adipose tissue,"[1]; ZDF rats, p<0.05",decrease
same,TNFα in adipose tissue,"[1]; ZDF rats, p<0.05",decrease
same,Basal rates of hepatic glucose production (HGP),"[1]; clamp, triol 100 mg/kg/d, rosiglitazone 10 mg/kg/d",equally reduced
same,glucose infusion rate,[1]; [4],increase
same,insulin-stimulated glucose disposal,[1]; [4],increase
same,time with blood levels at or above about 0.5 ng/mL,[2]; 2 mg twice per day,over 2 hours/day
same,peak blood levels,[2]; [5],1 to 2 ng/mL
same,time of peak blood levels after dosing,[2]; [5],2 to 3 h
same,blood levels maintained,"[2]; 2 mg twice per day, for over 2 hours/day",≥ 0.5 ng/mL
same,peak serum levels,"[2]; 10 mg twice per day (20 mg/day on a single day), n=2",10 to 30 ng/mL
same,serum levels remained at or above,[2]; 10 mg twice per day,≥ 3 ng/mL
same,serum levels remained at or above,[2]; 25 mg twice per day,≥ 3 ng/mL
same,peak serum levels,"[2]; 50 mg twice per day (100 mg/day), n=2",80 to 150 ng/mL
same,serum levels remained at or above,[2]; 50 mg twice per day (100 mg/day),≥ 10 ng/mL
same,induction of cytochromes (liver enzymes),[2]; 100 mg/day dose level,not observed
same,fasted Cmax lower compared to patients dosed after a meal,[2]; fasted vs fed status,up to 60%
same,mean Cmax,"[2]; females (n=3), 20 mg/day (10 mg twice per day)",13.8 ng/mL
same,Cmax levels in females vs males,[2]; in vivo,sometimes higher
same,"total drug exposure levels, adult females vs adult males",[2]; in vivo,somewhat higher
same,mean Cmax,"[2]; males (n=4), 20 mg/day (10 mg twice per day)",15.1 ng/mL
same,mean Cmax,"[2]; pre-diabetic hyperglycemic females (n=6), 10 mg per day (5 mg twice per day)",11.2 ng/mL
same,mean Cmax,"[2]; pre-diabetic hyperglycemic males (n=2), 10 mg per day (5 mg twice per day)",3.8 ng/mL
same,mean Cmax,"[2]; rheumatoid arthritis patients, females (n=6), 40 mg/day (20 mg twice per day)",27.4 ng/mL
same,mean Cmax,"[2]; rheumatoid arthritis patients, males (n=2), 40 mg/day (20 mg twice per day)",43.7 ng/mL

# — patent US20100227841A1, “Patient populations and treatment methods” (Harbor BioSciencs, Inc., priority 2008, published 2010)
